Reference: patent US20240376411A1, “IMPROVED PERFUME COMPOSITIONS COMPRISING SULFUR-CONTAINING PRO-FRAGRANCE COMPOUNDS” (FIRMENICH SA, priority 2021, published 2024)

How the values were obtained:
[1] = Sensorial evaluation (hydrogen sulfide smell) of perfume compositions upon 1 and 2 weeks of storage at 50° C.; format: physicochemical; conditions: for amount in the perfume composition that does not lead to an unpleasant hydrogen sulfide smell upon storage: conclusion from Tables 2 to 4, storage at 50° C.
Text: (§1) To the first perfume composition, a perfumery raw material that promotes the formation of hydrogen sulfide ((−)-(2E)-2-ethyl-4-[(1R)-2,2,3-trimethyl-3-cyclopenten-1-yl]-2-buten-1-ol) has been added at various amounts (5 wt. %, 10 wt. %, 20 wt. %, 30 wt. %, and 40 wt. %, respectively, based on the total weight of the perfume composition). For each amount, it has been tested whether a hydrogen sulfide malodor could be perceived upon storage of the final perfume composition for 1 and 2 weeks, respectively, at 50° C.
as §1, with “Likewise, to” for “To”, “second” for “first”, “((+/−)-3-methyl-5-phenyl-1-pentanol)” for “((−)-(2E)-2-ethyl-4-[(1R)-2,2,3-trimethyl-3-cyclopenten-1-yl]-2-buten-1-ol)”
as §1, with “Likewise, to” for “To”, “third” for “first”, “((+/−)-3,7-dimethyl-6-octen-1-ol)” for “((−)-(2E)-2-ethyl-4-[(1R)-2,2,3-trimethyl-3-cyclopenten-1-yl]-2-buten-1-ol)”

[2] = logP above 4 (octanol-water partition coefficient); conditions: Yes/No
[3] = 5 wt. % of the raw material in the perfume composition, even after 2 weeks of storage
[4] = 10 wt. % of the raw material in the perfume composition, even after 2 weeks of storage
[5] = above 20 wt. % of the raw material, after 1 week of storage

Row | amount in the perfume composition that does not lead to an unpleasant hydrogen sulfide smell upon storage [1] | logP > 4 [2] | SMILES | unpleasant hydrogen sulfide smell [1, 3] | unpleasant hydrogen sulfide smell [1, 4] | unpleasant hydrogen sulfide smell [1, 5] | unpleasant hydrogen sulfide smell ([1]; at 20 wt. % (and above) of the raw material, only after 1 week of storage at 50° C.)
1 | up to 19 wt. % | No | CC(C)=CCCC(C)CCO (racemic) [(+/−)-3,7-dimethyl-6-octen-1-ol] | no unpleasant hydrogen sulfide smell could be perceived | no unpleasant hydrogen sulfide smell could be perceived | unpleasant hydrogen sulfide smell was perceived | 
2 | up to 19 wt. % | No | CC(CCO)CCc1ccccc1 (racemic) [(+/−)-3-methyl-5-phenyl-1-pentanol] | no unpleasant hydrogen sulfide smell could be perceived | no unpleasant hydrogen sulfide smell could be perceived | unpleasant hydrogen sulfide smell was perceived | 
3 | up to 19 wt. % | Yes | CC/C(=C\C[C@H]1CC=C(C)C1(C)C)CO [(−)-(2E)-2-ethyl-4-[(1R)-2,2,3-trimethyl-3-cyclopenten-1-yl]-2-buten-1-ol] | no unpleasant hydrogen sulfide smell could be perceived | no unpleasant hydrogen sulfide smell could be perceived |  | unpleasant hydrogen sulfide smell was perceived
